Tests used:
[1] = parameters: species or system beagle dogs; details: dog, in vivo
Procedure: (§1) The local toxicology of Form 1 of the compound of Formula (I) in dogs was studied. The compound of Formula (I) (Form 1) was administered via single or multiple (9 times) intra-articular (IA) injections as a suspension composition in beagle dogs to evaluate local toxicity.
(§2) After IA injection, the right stifle joint was histologically evaluated for inflammation, cartilage health, bone density, etc. Toxicology was evaluated immediately after a single or multiple (3 or 9 once-monthly) IA injections.
The NOAEL for the compound of Formula (I) in this study was considered to be 116 μg/knee.

[2] = test system: rats that underwent ACLT combined with medial meniscectomy (MMx); experiment: Efficacy of suspension in rat ACLT + pMMx model (OARSI score); assay type: in vivo; details: for OARSI score: vehicle 4.43
Procedure: The efficacy of the compound of Formula (I) on increasing cartilage thickness was determined in rats that underwent anterior cruciate ligament transection (ACLT) combined with medial meniscectomy (MMx).
Female rats (10-12 weeks old) were subjected to surgical severing of the anterior cruciate, medial collateral and medial meniscotibial ligaments (ACLT+pMMx). One-week post-surgery, after cartilage was allowed to degenerate, the rats were injected intra-articular (IA) with a single dose of a suspension of the compound of Formula (I) (0.1 μg or 0.3 μg or 1 μg). On Days 30, 60, and 90 after injection, joint cartilage, bone and plasma was isolated. Compound from these tissues was extracted using acetonitrile-methanol (70:30) and analyzed for concentrations using LC-MS.
13 weeks after the surgery (12 weeks post-IA injection), knees were isolated, fixed in 10% formalin, decalcified, embedded in paraffin, and sectioned. Sections were stained with Safranin O-Fast Green and histologically evaluated by two blinded observers based on OARSI scoring system (Pritzker et al. (2006) Osteoarthr. Cartil. 14:13-29). The OARSI score measures cartilage matrix loss, fissures, subchondral bone remodeling and bone cyst formation.

Human MSCs = experiment: Alcian Blue, Safranin O, and Type II collagen staining; assay type: cell-based; details: 14 or 21 days; compared to control
Procedure: Human MSCs were plated in 96-well plates in chondrogenic induction medium (Lonza; DMEM, dexamethasone, ascorbate, insulin-transferrin-selenium [ITS supplement], gentamycin-amphotericin [GA-1000], sodium pyruvate, proline and L-glutamine) and treated with the compound of Formula (I) in DMSO or TGFβ3 (20 μg/mL) as a positive control. Cells were incubated at 37° C., 5% CO2 for either 14 or 21 days, with media changes every 5 days. The cells were fixed using 4% formaldehyde (Electron Microscopy Sciences). For Alcian Blue staining, cells were incubated with 10 mg/mL Alcian Blue (Sigma-Aldrich) in 3% acetic acid (Sigma-Aldrich), pH 2.5 for 30 minutes, washed with PBS, and imaged using a light microscope (Life Technologies) at 10× magnification. For Safranin O staining, cells were incubated with 0.1% Safranin O (Sigma-Aldrich) in distilled water for 5 minutes, washed with PBS and imaged using a light microscope (Life Technologies) at 10× magnification. For Type II collagen staining, cells were incubated with primary antibody in 3% BSA, 0.3% Triton X-100 in PBS with overnight incubation at […]. Cells were then washed and incubated with fluorophore-linked secondary antibody and DAPI (Life Technologies) for 1 hr at room temperature. Cells were washed and imaged using EVOS FL Microscope (Life Technologies).

[3] = test system: rat models of osteoarthritis (ACLT and pMMx); experiment: Efficacy of suspension compositions compared to a solution composition in rat OA model; assay type: in vivo, rats
Procedure: The efficacy of suspension compositions of the compound of Formula (I) (Form 1) as compared to a solution composition of the compound of Formula (I) in rat models of osteoarthritis (OA) was determined using a solution (final IA dose of 3 μg solution) and 0.1 μg and 0.3 μg suspension compositions of the compound of Formula (I) (Form 1).
The rats were treated with final dose levels of either a 0.1 μg or 0.3 μg suspension or a 3 μg solution of the compound of Formula (I). Histology score of cartilage integrity in the knee was the readout.

[4] = assay type: in vivo, beagle dogs; details: dog
Procedure: as §1, §2

SMILES: CC(C)CC(=O)Nc1cncc(-c2ccc3[nH]nc(-c4nc5c(-c6cccc(F)c6)cncc5[nH]4)c3c2)c1 [compound of Formula (I)]
- NOAEL [1]: 116 μg/knee
- OARSI score ([2]; rat ACLT+pMMx, single IA 0.1 μg suspension, 12 weeks post-injection): 3.13
- OARSI score ([2]; rat ACLT+pMMx, single IA 0.3 μg suspension, 12 weeks post-injection): 2.15
- total OARSI score (against vehicle) ([2]; rat ACLT+pMMx, 0.1, 0.3 or 1 μg, 12 weeks post-injection): dose-dependent reduction
- knee histology (Safranin O-Fast Green) ([2]; rat ACLT+pMMx, single IA injection, 12 weeks post-injection): Increased cartilage thickness, decreased fissures, and subchondral bone remodeling
- cartilage in safranin O-stained knee section vs control knee ([2]; rat, 0.3 μg, after 12 weeks, FIG. 23B): increased cartilage
- chondrogenesis (Alcian Blue, Safranin O, Type II collagen staining) (Human MSCs): increased amount of chondrogenesis
- histology score of cartilage integrity in the knee (vs. vehicle) ([3]; 0.1 μg suspension, 3 months, did not reach statistical significance): beneficial effect
- histology score of cartilage integrity in the knee (vs. vehicle) ([3]; 0.3 μg suspension, 3 months): significant difference
- histology score of cartilage integrity in the knee (vs. vehicle) ([3]; 3 μg solution, 2 months, did not reach statistical significance): beneficial effect
- finding at the injection site of high-dose animals (synovium and extra-articular tissues) ([4]; in vivo): local inflammatory response
- no observed adverse effect level (NOAEL) ([4]; in vivo): 1.75 mg/knee
- histopathological effects in the bone and cartilage ([4]; single IA injection 0.07, 1.75 and 35 mg): no adverse histopathological effects
